Patent USRE49351E1, “Cytoprotective agent” (Biogen MA Inc., priority 2009, dated 2023)

What was measured:
[1] = H-ORAC (hydrophilic oxygen radical absorbance capacity) assay; assay type: biochemical; details: sodium salt aqueous solution, phosphate buffer pH 7.4
Experimental: (§1) To study the free radical scavenging activity of a triprenyl phenol compound, the following H-ORAC (hydrophilic oxygen radical absorbance capacity) assay, and modified H-ORAC (mH-ORAC) assay were conducted.
(§2) SMTP compounds evaluated by H-ORAC were used respectively in a form of a sodium salt aqueous solution, and the compounds evaluated by mH-ORAC were used respectively in a form of an acetone solution.
(§3) In H-ORAC a test compound was diluted appropriately with a buffer solution (75 mM phosphate buffer solution, pH 7.4) and used for measurement. In mH-ORAC a test compound was diluted appropriately by a 50% (v/v) acetone solution, prepared by diluting an acetone solution with water, to prepare a solution of 40-fold the final concentration. […] As for the reference material Trolox, 500 μM/buffer solution was diluted appropriately with a buffer solution.
(§4) To a 96-well microplate (transparent, flat bottom, black wall) 50 μL of a test compound solution or a Trolox solution was placed, and additionally 100 μL of a fluorescein 140 nM/buffer solution as a fluorescent substance was added (final concentration 70 nM), followed by incubation at 37° C. for […].
(§5) As a free radical generator, 50 μL of a 48 mM/buffer solution of 2,2′-azobis(amidinopropane)dihydrochloride was added (final concentration 12 mM), and fluorescence intensity at fluorescence wavelength of 535 nm with excitation wavelength of 485 nm was measured at 2 min intervals for 90 min. The calibration curve was prepared between the Trolox final concentrations of 5 to 15 μM. The measurement was conducted by changing the concentration with n=3, and plotted on a diagram with time on the abscissa and the fluorescence intensity on the ordinate. Therewith evaluation was made using the value obtained by reducing the area under the curve for the blank from the area under the curve for the sample. The result was expressed as an equivalent to Trolox.

[2] = tested on: Mongolian gerbil cerebral infarction model; assay: Mongolian gerbil cerebral infarction model (acetic acid-induced thrombus): infarction area percentage and neurological symptom; assay type: in vivo; details: for Infarction area: evaluated 24 h; for Infarction area / Neurological scores: mean ± SE, n=6; for Neurological scores: score 0-4 at 24 h; for improvement rate of the infarction area percentage: 10 mg/kg, administration initiated 1 hour after the initiation of ischemia
Excerpt: Anesthesia was induced to a male Mongolian gerbil (body weight 55 to 65 g) by inhalation of 5% isoflurane (trade name Escain, Mylan Inc.), and maintained with 1 to 1.5% isoflurane. The Mongolian gerbil was fixed in a dorsal position, and the neck was dehaired and then disinfected with 70% ethanol. After median incision of the neck, the right common carotid artery was detached, clamped to block the blood flow temporarily, and coated with 100% acetic acid by 30 reciprocating motions so as to produce a thrombus. The blood vessel was reopened after 10 min of the blockage of the blood flow to transfer the thrombus by the blood stream into the brain to make it ischemic and generate cerebral infarction. The operating field was closed with an instant adhesive (trade name Aron Alpha (Krazy Glue), Toagosei Co., Ltd.) and disinfected with 70% ethanol.
Twenty four hours after the initiation of the operation neurological symptoms were observed as an indicator for cerebral infarction. Many types of neurological symptoms specific to cerebral infarction, such as extension of a hindlimb or circling to one direction, have been reported. Applying a modified evaluation method of the method proposed by Longa, et al. (Stroke 1989; 20:84-91) postoperative neurological symptoms were evaluated as per: no deficit, 0; extension of limb, 1; circling to one direction, 2; incline posture, 3; diminished motion, 4.
With respect to statistical analysis, for multiple comparisons was conducted firstly one-way analysis of variance (ANOVA) and then a Bonferroni test was conducted, if significant difference is detected. Significant difference was positively recognized with significance level 5% (P<0.05). All the results are expressed in mean±standard error.
After the evaluation of neurological symptoms according to the above method, the animal was decapitated under anesthesia with isoflurane. The cranial bone was exfoliated of skin and opened, and, after scission of optic nerve, the brain was extirpated and dipped in a physiological saline solution to remove attached body hairs, etc. The extirpated brain was placed in a brain matrix (RBM-1000C, ASI Instruments) to carry out coronal slicing from the frontal pole at thickness of 2 mm. The slices were dipped in 2% 2,3,5-triphenyl-2H-tetrazolium chloride (TTC), and incubated for staining at 37° C. for 30 min in a CO2 incubator. The colorless TTC is reduced by hydrogen liberated by the action of dehydrogenase contained in a normal cell converting to dark red colored water-insoluble 1,3,5-triphenylformazan (TPF), so that the normal cell is stained. Unstained area (white area) was defined as an infarction area. Meanwhile, the corpus callosum, which is commissural fibers connecting the right and left cerebral hemispheres, is not stained and is white, and therefore image processing for the analyses as described below was conducted excluding the corpus callosum.
After staining images of the brain slices were taken by a digital camera under a stereoscopic microscope. For analysis of the infarction area percentage, an image analysis software Image J (Version 1.4) was used. Full, excluding the corpus callosum, images of the taken 2nd, 3rd, and 4th brain slice images were converted to grayscale. From the grayscale images a histogram for the whole brain as the object scope was obtained showing in the ordinate the frequency of occurrence (frequency) at certain brightness, and showing in the abscissa the brightness (0 to 255). The sum from 0 to 255 was defined as the area size of the whole brain, and the sum from 160 to 219 was defined as the area size of the infarction area. Then the infarction area percentage was determined according to the following formula using the total area size of the infarction areas and the total area size of the whole brain, of the 3 brain slice images. Statistical analysis was conducted as above. […]

[3] = modified H-ORAC (mH-ORAC) assay; assay type: biochemical; details: acetone solution, acetone final concentration 1.25%
Experimental: as §1, §2, §3, §4, §5

[4] = 1 mg/kg i.v., administration initiated 1 hr after ischemia
[5] = 10 mg/kg i.v., administration initiated 1 hr after ischemia
[6] = 10 mg/kg i.v., administration initiated 3 hr after ischemia
[7] = 10 mg/kg i.v., administration initiated 6 hr after ischemia
[8] = 0.01 mg/kg i.v., administration initiated 1 hr after ischemia
[9] = 0.1 mg/kg i.v., administration initiated 1 hr after ischemia

| Compound | free radical scavenging activity, Trolox equivalent [1] | Infarction area [2, 4] | Neurological scores [2, 4] | Infarction area [2, 5] | Neurological scores [2, 5] | Infarction area [2, 6] | Neurological scores [2, 6] | Infarction area [2, 7] | Neurological scores [2, 7] | improvement rate of the infarction area percentage [2] | free radical scavenging activity, Trolox equivalent [3] | Infarction area [2, 8] | Neurological scores [2, 8] | Infarction area [2, 9] | Neurological scores [2, 9] |
| --- | --- | --- | --- | --- | --- | --- | --- | --- | --- | --- | --- | --- | --- | --- | --- |
| CC(C)=CCC/C(C)=C/CC[C@@]1(C)Oc2c(c(O)cc3c2CN(CCC[C@@H](C(=O)O)N2Cc4c(cc(O)c5c4O[C@](C)(CC/C=C(\C)CCC=C(C)C)[C@@H](O)C5)C2=O)C3=O)C[C@@H]1O [SMTP-7] | 2.08 ± 0.13 molTE/mol | 11.4 ± 2.69% | 2.67 ± 0.33 | 7.01 ± 0.56 % | 1.50 ± 0.67 | 5.90 ± 0.36 % | 1.67 ± 0.61 | 7.93 ± 1.64 % | 2.00 ± 0.45 | 65.7% | 1.82 ± 0.27 molTE/mol |  |  |  |  |
| CC(C)=CCC/C(C)=C/CCC1(C)Oc2c(c(O)cc3c2CN(C(Cc2c[nH]c4ccccc24)C(=O)O)C3=O)CC1O (centres unmarked) [SMTP-6] | 3.73 ± 0.42 molTE/mol |  |  |  |  |  |  |  |  |  |  |  |  |  |  |
| alteplase [reference compound] |  |  |  | 5.43 ± 1.33 % | 0.17 ± 0.17 | 11.0 ± 3.61% | 1.33 ± 0.67 | 13.8 ± 2.40% | 3.17 ± 0.48 | 78.9% |  | 11.2 ± 2.74% | 2.67 ± 0.56 | 9.67 ± 2.35% | 2.00 ± 0.77 |
